# Source: ChEMBL document CHEMBL3885861, “Open TG-GATES”
# Organism: Rattus norvegicus
# Test: Open TG-GATES - Regimen: Daily Repeat
# Format: toxicity, organism-based, Sprague-Dawley
# Set-up: regimen Daily Repeat, gender Male, age 6 weeks
# Conditions: in vivo, po, 100 mg/kg, route gavage, dose level Middle; for APTT / Bas / Eos / Fbg / Hb / Ht / Lym / MCH / MCHC / MCV / Mono / Neu / PT / Plat / RBC / Ret / WBC: tissue Blood; for KIDNEY_L / KIDNEY_R / KIDNEY_TOTAL: tissue Kidney; for LIVER: tissue Liver; for A/G / ALP / ALT / AST / BUN / CRE / Ca / Cl / DBIL / GLC / IP / K / LDH / Na / PL / RALB / TBIL / TC / TG / TP / gamma-GTP: tissue Plasma
smiles,measurement,setting,value
CC(=O)Nc1ccc2c(c1)Cc1ccccc1-2 [2-ACETYLAMINOFLUORENE],TERMINAL_BW,"72 h, time 3 day",202.9 g
same,APTT,"72 h, time 3 day",20.1 s
same,Bas,"72 h, time 3 day",0.8%
same,Eos,"72 h, time 3 day",0.8%
same,Fbg,"72 h, time 3 day",260.6 mg/dL
same,Hb,"72 h, time 3 day",15.7 g/dL
same,Ht,"72 h, time 3 day",45.1%
same,Lym,"72 h, time 3 day",72.4%
same,MCH,"72 h, time 3 day",21.9 pg
same,MCHC,"72 h, time 3 day",34.9%
same,MCV,"72 h, time 3 day",62.7 fL
same,Mono,"72 h, time 3 day",2.8%
same,Neu,"72 h, time 3 day",22.4%
same,PT,"72 h, time 3 day",12.7 s
same,Plat,"72 h, time 3 day",133.7 x10_4/uL
same,RBC,"72 h, time 3 day",718.2 x10_4/ul
same,Ret,"72 h, time 3 day",3.6%
same,WBC,"72 h, time 3 day",85 x10_2/uL
same,KIDNEY_L,"72 h, time 3 day",1 g
same,KIDNEY_R,"72 h, time 3 day",0.9 g
same,KIDNEY_TOTAL,"72 h, time 3 day",1.9 g
same,LIVER,"72 h, time 3 day",8.8 g
same,A/G,"72 h, time 3 day",1.4
same,ALP,"72 h, time 3 day",615.4 IU/L
same,ALT,"72 h, time 3 day",24 IU/L
same,AST,"72 h, time 3 day",70.8 IU/L
same,BUN,"72 h, time 3 day",11.4 mg/dL
same,CRE,"72 h, time 3 day",0.4 mg/dL
same,Ca,"72 h, time 3 day",10.1 mg/dL
same,Cl,"72 h, time 3 day",104.4 meq/L
same,DBIL,"72 h, time 3 day",0.076 mg/dL
same,GLC,"72 h, time 3 day",191 mg/dL
same,IP,"72 h, time 3 day",8.2 mg/dL
same,K,"72 h, time 3 day",4.3 meq/L
same,LDH,"72 h, time 3 day",220.8 IU/L
same,Na,"72 h, time 3 day",141.6 meq/L
same,PL,"72 h, time 3 day",86.2 mg/dL
same,RALB,"72 h, time 3 day",2.9 g/dL
same,TBIL,"72 h, time 3 day",0.1 mg/dL
same,TC,"72 h, time 3 day",45.4 mg/dL
same,TG,"72 h, time 3 day",47.6 mg/dL
same,TP,"72 h, time 3 day",5 g/dL
same,gamma-GTP,"72 h, time 3 day",1.2 IU/L
same,TERMINAL_BW,"[…], time 7 day",214.1 g
same,TERMINAL_BW,"[…], time 14 day",247.1 g
same,TERMINAL_BW,"[…], time 28 day",286 g
same,APTT,"[…], time 7 day",20.2 s
same,Bas,"[…], time 7 day",0.8%
same,Eos,"[…], time 7 day",0.6%
same,Fbg,"[…], time 7 day",167.8 mg/dL
same,Hb,"[…], time 7 day",14.7 g/dL
same,Ht,"[…], time 7 day",41.6%
same,Lym,"[…], time 7 day",83%
same,MCH,"[…], time 7 day",20.5 pg
same,MCHC,"[…], time 7 day",35.3%
same,MCV,"[…], time 7 day",58.1 fL
same,Mono,"[…], time 7 day",2.8%
same,Neu,"[…], time 7 day",12.2%
same,PT,"[…], time 7 day",13.8 s
same,Plat,"[…], time 7 day",174.6 x10_4/uL
same,RBC,"[…], time 7 day",715.8 x10_4/ul
same,Ret,"[…], time 7 day",1.2%
same,WBC,"[…], time 7 day",106.3 x10_2/uL
same,APTT,"[…], time 14 day",18.3 s
same,Bas,"[…], time 14 day",0.8%
same,Eos,"[…], time 14 day",0%
same,Fbg,"[…], time 14 day",106.8 mg/dL
same,Hb,"[…], time 14 day",13.1 g/dL
same,Ht,"[…], time 14 day",38.5%
same,Lym,"[…], time 14 day",74.6%
same,MCH,"[…], time 14 day",19.7 pg
same,MCHC,"[…], time 14 day",34.1%
same,MCV,"[…], time 14 day",57.7 fL
same,Mono,"[…], time 14 day",3%
same,Neu,"[…], time 14 day",21%
same,PT,"[…], time 14 day",15.2 s
same,Plat,"[…], time 14 day",144.4 x10_4/uL
same,RBC,"[…], time 14 day",667 x10_4/ul
same,Ret,"[…], time 14 day",6.3%
same,WBC,"[…], time 14 day",169.9 x10_2/uL
same,APTT,"[…], time 28 day",22.1 s
same,Bas,"[…], time 28 day",0.2%
same,Eos,"[…], time 28 day",0%
same,Fbg,"[…], time 28 day",74.4 mg/dL
same,Hb,"[…], time 28 day",13.6 g/dL
same,Ht,"[…], time 28 day",40.8%
same,Lym,"[…], time 28 day",61.6%
same,MCH,"[…], time 28 day",20.5 pg
same,MCHC,"[…], time 28 day",33.4%
same,MCV,"[…], time 28 day",61.3 fL
same,Mono,"[…], time 28 day",2.8%
same,Neu,"[…], time 28 day",34.2%
same,PT,"[…], time 28 day",18.8 s
same,Plat,"[…], time 28 day",149.9 x10_4/uL
same,RBC,"[…], time 28 day",667.6 x10_4/ul
same,Ret,"[…], time 28 day",6.6%
same,WBC,"[…], time 28 day",220.7 x10_2/uL
same,KIDNEY_L,"[…], time 7 day",1 g
same,KIDNEY_R,"[…], time 7 day",0.9 g
same,KIDNEY_TOTAL,"[…], time 7 day",1.9 g
same,KIDNEY_L,"[…], time 14 day",1.1 g
same,KIDNEY_R,"[…], time 14 day",1.1 g
same,KIDNEY_TOTAL,"[…], time 14 day",2.2 g
same,KIDNEY_L,"[…], time 28 day",1.3 g
same,KIDNEY_R,"[…], time 28 day",1.3 g
same,KIDNEY_TOTAL,"[…], time 28 day",2.5 g
same,LIVER,"[…], time 7 day",9.2 g
same,LIVER,"[…], time 14 day",10.6 g
same,LIVER,"[…], time 28 day",11.7 g
same,A/G,"[…], time 7 day",1.5
same,ALP,"[…], time 7 day",822.2 IU/L
same,ALT,"[…], time 7 day",33.8 IU/L
same,AST,"[…], time 7 day",83.4 IU/L
same,BUN,"[…], time 7 day",11.4 mg/dL
same,CRE,"[…], time 7 day",0.4 mg/dL
same,Ca,"[…], time 7 day",9.8 mg/dL
same,Cl,"[…], time 7 day",105.4 meq/L
same,DBIL,"[…], time 7 day",0.098 mg/dL
same,GLC,"[…], time 7 day",170.6 mg/dL
same,IP,"[…], time 7 day",6 mg/dL
same,K,"[…], time 7 day",4.1 meq/L
same,LDH,"[…], time 7 day",274.8 IU/L
same,Na,"[…], time 7 day",139.8 meq/L
same,PL,"[…], time 7 day",93 mg/dL
same,RALB,"[…], time 7 day",2.6 g/dL
same,TBIL,"[…], time 7 day",0.2 mg/dL
same,TC,"[…], time 7 day",37.6 mg/dL
same,TG,"[…], time 7 day",75.2 mg/dL
same,TP,"[…], time 7 day",4.4 g/dL
same,gamma-GTP,"[…], time 7 day",1 IU/L
same,A/G,"[…], time 14 day",1.3
same,ALP,"[…], time 14 day",791.2 IU/L
same,ALT,"[…], time 14 day",41 IU/L
same,AST,"[…], time 14 day",83.6 IU/L
same,BUN,"[…], time 14 day",13.6 mg/dL
same,CRE,"[…], time 14 day",0.5 mg/dL
same,Ca,"[…], time 14 day",9.6 mg/dL
same,Cl,"[…], time 14 day",103.4 meq/L
same,DBIL,"[…], time 14 day",0.6 mg/dL
same,GLC,"[…], time 14 day",157 mg/dL
same,IP,"[…], time 14 day",7.8 mg/dL
same,K,"[…], time 14 day",4.1 meq/L
same,LDH,"[…], time 14 day",206 IU/L
same,Na,"[…], time 14 day",141 meq/L
same,PL,"[…], time 14 day",104.8 mg/dL
same,RALB,"[…], time 14 day",2.3 g/dL
same,TBIL,"[…], time 14 day",0.7 mg/dL
same,TC,"[…], time 14 day",43.4 mg/dL
same,TG,"[…], time 14 day",64.6 mg/dL
same,TP,"[…], time 14 day",4.1 g/dL
same,gamma-GTP,"[…], time 14 day",2 IU/L
same,A/G,"[…], time 28 day",1.1
same,ALP,"[…], time 28 day",1005.4 IU/L
same,ALT,"[…], time 28 day",58.8 IU/L
same,AST,"[…], time 28 day",126.6 IU/L
same,BUN,"[…], time 28 day",12.4 mg/dL
same,CRE,"[…], time 28 day",0.4 mg/dL
same,Ca,"[…], time 28 day",8.9 mg/dL
same,Cl,"[…], time 28 day",104.6 meq/L
same,DBIL,"[…], time 28 day",1.2 mg/dL
same,GLC,"[…], time 28 day",146 mg/dL
same,IP,"[…], time 28 day",6.7 mg/dL
same,K,"[…], time 28 day",3.9 meq/L
same,LDH,"[…], time 28 day",264.4 IU/L
same,Na,"[…], time 28 day",141 meq/L
same,PL,"[…], time 28 day",128.8 mg/dL
same,RALB,"[…], time 28 day",2 g/dL
same,TBIL,"[…], time 28 day",1.6 mg/dL
same,TC,"[…], time 28 day",55.4 mg/dL
same,TG,"[…], time 28 day",76.2 mg/dL
same,TP,"[…], time 28 day",3.9 g/dL
same,gamma-GTP,"[…], time 28 day",9.6 IU/L
